Measurements from patent US8383094B2, “Hepatitis C virus inhibitors” (Bristol-Myers Squibb Company, priority 2008, dated 2013).

Each molecule was assayed on HCV 1b genotype (assay: HCV Replicon assay (HCV-neo replicon cells, wild-type)). Conditions: HCV 1b genotype replicon; range class A-D; read-out: 1b EC50 (in μM or range).
Assay type: cell-based
Method: An HCV Replicon assay was utilized in the present disclosure, and was prepared, conducted and validated as described in commonly owned PCT/US2006/022197 and in O′Boyle et. al. Antimicrob Agents Chemother, 2005 April; 49(4):1346-53. Assay methods incorporating luciferase reporters have also been used as described (Apath.com).
HCV-neo replicon cells and replicon cells containing mutations in the NS5A region were used to test the currently described family of compounds. The compounds were determined to have more than 10-fold less inhibitory activity on cells containing mutations than wild-type cells. Thus, the compounds of the present disclosure can be effective in inhibiting the function of the HCV NS5A protein and are understood to be as effective in combinations as previously described in application PCT/US2006/022197 and commonly owned WO/04014852. Further, the compounds of the present disclosure can be effective against the HCV 1b genotype. It should also be understood that the compounds of the present disclosure can inhibit multiple genotypes of HCV. […] In one embodiment, compounds of the present disclosure are inhibitory versus 1a, 1b, 2a, 2b, 3a, 4a, and 5a genotypes.

Structure (SMILES)	EC50 [nM]
CC(=O)N1CCN(C(C(=O)N2CCC[C@H]2C(=O)Nc2ccc(C#Cc3ccc(NC(=O)[C@@H]4CCCN4C(=O)C(c4ccccc4)N4CCN(C(C)=O)CC4)cc3)cc2)c2ccccc2)CC1 (stereo partly drawn) [VN49, (2S,2′S)-N,N′-(1,2-ethynediyldi-4,1-phenylene)bis(1-((4-acetyl-1-piperazinyl)(phenyl)acetyl)-2-pyrrolidinecarboxamide)]	4.57 to 99
CCc1cccnc1C(=O)N1CCC[C@H]1C(=O)Nc1ccc(C#Cc2ccc(NC(=O)[C@@H]3CCCN3C(=O)c3ncccc3CC)cc2)cc1 [Example D36.4, (2S,2′S)-N,N′-(4,4′-(ethyne-1,2-diyl)bis(4,1-phenylene))bis(1-(3-ethylpicolinoyl)pyrrolidine-2-carboxamide)]	4.57 to 99
CN1Cc2ccccc2C1C(=O)N1CCC[C@H]1C(=O)Nc1ccc(C#Cc2ccc(NC(=O)[C@@H]3CCCN3C(=O)C3c4ccccc4CN3C)cc2)cc1 (stereo partly drawn) [VN40, (2S,2′S)-N,N′-(1,2-ethynediyldi-4,1-phenylene)bis(1-((2-methyl-2,3-dihydro-1H-isoindol-1-yl)carbonyl)-2-pyrrolidinecarboxamide)]	4.57 to 99
CCc1scnc1C(=O)N1CCC[C@H]1C(=O)Nc1ccc(C#Cc2ccc(NC(=O)[C@@H]3CCCN3C(=O)c3ncsc3CC)cc2)cc1 [Example D36.2, (2S,2′S)-N,N′-(4,4′-(ethyne-1,2-diyl)bis(4,1-phenylene))bis(1-(5-ethylthiazole-4-carbonyl)pyrrolidine-2-carboxamide)]	4.57 to 99
CN(C)C1(C(=O)N2CCC[C@H]2C(=O)Nc2ccc(C#Cc3ccc(NC(=O)[C@@H]4CCCN4C(=O)C4(N(C)C)CCc5ccccc54)cc3)cc2)CCc2ccccc21 (stereo partly drawn) [VN42, (2S,2′S)-N,N′-(1,2-ethynediyldi-4,1-phenylene)bis(1-((1-(dimethylamino)-2,3-dihydro-1H-inden-1-yl)carbonyl)-2-pyrrolidinecarboxamide)]	4.57 to 99

Same assay, conditions: HCV 1b genotype replicon; read-out: 1b EC50 (in μM or range)

Structure (SMILES)	EC50 [nM]
CN1C[C@@H]2C[C@H]1CN2C(C(=O)N1CCC[C@H]1C(=O)Nc1ccc(C#Cc2ccc(NC(=O)[C@@H]3CCCN3C(=O)C(c3ccccc3)N3C[C@@H]4C[C@H]3CN4C)cc2)cc1)c1ccccc1 (stereo partly drawn) [VN19, (2S,2′S)-N,N′-(1,2-ethynediyldi-4,1-phenylene)bis(1-(((1S,4S)-5-methyl-2,5-diazabicyclo[2.2.1]hept-2-yl)(phenyl)acetyl)-2-pyrrolidinecarboxamide)]	5.2

Same assay, conditions: Hepatitis C virus, HCV 1b genotype replicon; range class A-D; read-out: 1b EC50 (in μM or range)

Structure (SMILES)	EC50 [nM]
CCOc1cccc2c(C(=O)N3CCC[C@H]3C(=O)Nc3ccc(C#Cc4ccc(NC(=O)[C@@H]5CCCN5C(=O)c5nc(Cl)cc6c(OCC)cccc56)cc4)cc3)nc(Cl)cc12 [Example D34, (2S,2′S)-N,N′-(1,2-ethynediyldi-4,1-phenylene)bis(1-((3-chloro-5-ethoxy-1-isoquinolinyl)carbonyl)-2-pyrrolidinecarboxamide)]	4.57 to 99
O=C(Nc1ccc(C#Cc2ccc(NC(=O)[C@@H]3CCCN3C(=O)C(F)c3ccccc3)cc2)cc1)[C@@H]1CCCN1C(=O)C(F)c1ccccc1 (stereo partly drawn) [VN8, (2S,2′S)-N,N′-(1,2-ethynediyldi-4,1-phenylene)bis(1-(fluoro(phenyl)acetyl)-2-pyrrolidinecarboxamide)]	< 4.57
O=C(Nc1ccc(C#Cc2ccc(NC(=O)C3CC(=O)N(CCc4cccs4)C3)cc2)cc1)C1CC(=O)N(CCc2cccs2)C1 (stereo not shown) [Example D10, N,N′-(1,2-ethynediyldi-4,1-phenylene)bis(5-oxo-1-(2-(2-thienyl)ethyl)-3-pyrrolidinecarboxamide)]	1000 to 10000
C[C@@](O)(C(=O)N1CCC[C@H]1C(=O)Nc1ccc(C#Cc2ccc(NC(=O)[C@@H]3CCCN3C(=O)[C@@](C)(O)c3ccccc3)nc2)cn1)c1ccccc1 [Example D51, (2S,2′S)-N,N′-(1,2-ethynediyldi-5,2-pyridinediyl)bis(1-((2S)-2-hydroxy-2-phenylpropanoyl)-2-pyrrolidinecarboxamide)]	< 4.57
CC(=O)N1CCN(C(C(=O)N2CCC[C@H]2C(=O)Nc2ccc(C#Cc3ccc(NC(=O)[C@@H]4CCCN4C(=O)C(c4ccccc4)N4CCN(C(C)=O)CC4)cc3)cc2)c2ccccc2)CC1 (stereo partly drawn) [VN48, (2S,2′S)-N,N′-(1,2-ethynediyldi-4,1-phenylene)bis(1-((4-acetyl-1-piperazinyl)(phenyl)acetyl)-2-pyrrolidinecarboxamide)]	< 4.57
CCC(O)(C(=O)N1CCC[C@H]1C(=O)Nc1ccc(C#Cc2ccc(NC(=O)[C@@H]3CCCN3C(=O)C(O)(CC)c3ccccc3)cc2)cc1)c1ccccc1 (stereo partly drawn) [VN10, (2S,2′S)-N,N′-(1,2-ethynediyldi-4,1-phenylene)bis(1-(2-hydroxy-2-phenylbutanoyl)-2-pyrrolidinecarboxamide)]	< 4.57
O=C(Nc1ccc(C#Cc2ccc(NC(=O)[C@@H]3CCCN3C(=O)[C@H]3CCCO3)cc2)cc1)[C@H]1CCCO1 [Example D25, 1-((2R)-Tetrahydro-2-furanylcarbonyl)-N-(4-((4-(((2R)-tetrahydro-2-furanylcarbonyl)amino)phenyl)ethynyl)phenyl)-L-prolinamide]	1000 to 10000
O=C(Nc1ccc(C#Cc2ccc(NC(=O)[C@@H]3CCCN3C(=O)[C@@H](O)c3ccccc3)cc2)cc1)[C@@H]1CCCN1C(=O)[C@@H](O)c1ccccc1 [Example D41, (2S,2′S)-N,N′-(1,2-ethynediyldi-4,1-phenylene)bis(1-((2S)-2-hydroxy-2-phenylacetyl)-2-pyrrolidinecarboxamide)]	< 4.57
CCN(C)C(C(=O)N1CCC[C@H]1C(=O)Nc1ccc(C#Cc2ccc(NC(=O)[C@@H]3CCCN3C(=O)C(c3ccccc3)N(C)CC)cc2)cc1)c1ccccc1 (stereo partly drawn) [VN47, (2S,2′S)-N,N′-(1,2-ethynediyldi-4,1-phenylene)bis(1-((ethyl(methyl)amino)(phenyl)acetyl)-2-pyrrolidinecarboxamide)]	4.57 to 99
CC(C)(C)OC(=O)N[C@@H](C(=O)N1CCC[C@H]1C(=O)Nc1ccc(C#Cc2ccc(NC(=O)[C@@H]3CCCN3C(=O)[C@H](NC(=O)OC(C)(C)C)c3ccccc3)cc2)cc1)c1ccccc1 [VN23, Step a, di-tert-butyl(1,2-ethynediylbis(4,1-phenylenecarbamoyl(2S)-2,1-pyrrolidinediyl((1R)-2-oxo-1-phenyl-2,1-ethanediyl)))biscarbamate]	< 4.57
O=C(Nc1ccc(C#Cc2ccc(NC(=O)[C@@H]3CCCN3C(=O)Cc3ccccc3)cc2)cc1)[C@H]1CCCO1 [Example D17, 1-(Phenylacetyl)-N-(4-((4-(((2R)-tetrahydro-2-furanylcarbonyl)amino)phenyl)ethynyl)phenyl)-L-prolinamide]	100 to 999
O=C(Nc1ccc(C#Cc2ccc(NC(=O)[C@@H]3CCCN3C(=O)C(c3ccccc3)N3CCC(O)CC3)cc2)cc1)[C@@H]1CCCN1C(=O)C(c1ccccc1)N1CCC(O)CC1 (stereo partly drawn) [VN20, (2S,2′S)-N,N′-(1,2-ethynediyldi-4,1-phenylene)bis(1-((4-hydroxy-1-piperidinyl)(phenyl)acetyl)-2-pyrrolidinecarboxamide)]	4.57 to 99
C[C@@H](C(=O)N1CCC[C@H]1C(=O)Nc1ccc(C#Cc2ccc(NC(=O)[C@@H]3CCCN3C(=O)[C@H](C)c3ccccc3)cc2)cc1)c1ccccc1 [VN9, (2S,2′S)-N,N′-(1,2-ethynediyldi-4,1-phenylene)bis(1-((2R)-2-phenylpropanoyl)-2-pyrrolidinecarboxamide)]	< 4.57
CN(C)[C@H](Cc1ccccc1)C(=O)N1CCC[C@H]1C(=O)Nc1ccc(C#Cc2ccc(NC(=O)[C@@H]3CCCN3C(=O)[C@@H](Cc3ccccc3)N(C)C)cc2)cc1 [VN28, (2S,2′S)-N,N′-(1,2-ethynediyldi-4,1-phenylene)bis(1-((2R)-2-(dimethylamino)-3-phenylpropanoyl)-2-pyrrolidinecarboxamide)]	< 4.57

Same assay, conditions: Hepatitis C virus, HCV 1b genotype replicon; read-out: 1b EC50 (in μM or range)

Structure (SMILES)	EC50 [nM]
CCOC(=O)N[C@@H](C(=O)N1CCC[C@H]1C(=O)Nc1ccc(C#Cc2ccc(NC(=O)[C@@H]3CCCN3C(=O)[C@H](NC(=O)OCC)c3ccccc3)cc2)cc1)c1ccccc1 [VN54, Diethyl (1,2-ethynediylbis(4,1-phenylenecarbamoyl(2S)-2,1-pyrrolidinediyl((1R)-2-oxo-1-phenyl-2,1-ethanediyl)))biscarbamate]	0.018
CC(=O)N1CCC[C@H]1C(=O)Nc1ccc(C#Cc2ccc(NC(=O)[C@@H]3CCCCN3C(=O)OCc3ccccc3)cc2)cc1 [Example D11, Benzyl (2S)-2-((4-((4-((1-acetyl-L-prolyl)amino)phenyl)ethynyl)phenyl)carbamoyl)-1-piperidinecarboxylate]	590
CN1CCN(C(C(=O)N2CCC[C@H]2C(=O)Nc2ccc(C#Cc3ccc(NC(=O)[C@@H]4CCCN4C(=O)C(c4ccccc4)N4CCN(C)CC4)cc3)cc2)c2ccccc2)CC1 (stereo partly drawn) [VN43, (2S,2′S)-N,N′-(1,2-ethynediyldi-4,1-phenylene)bis(1-((4-methyl-1-piperazinyl)(phenyl)acetyl)-2-pyrrolidinecarboxamide)]	0.015
O=C(CC1CC1)Nc1ccc(C#Cc2ccc(NC(=O)[C@@H]3CCCN3C(=O)[C@H]3CCCO3)cc2)cc1 [Example D23, N-(4-((4-((cyclopropylacetyl)amino)phenyl)ethynyl)phenyl)-1-((2R)-tetrahydro-2-furanylcarbonyl)-L-prolinamide]	2600
CC(=O)N1CCC[C@H]1C(=O)Nc1ccc(C#Cc2ccc(NC(=O)C3CC(=O)N(CCc4cccs4)C3)cc2)cc1 (stereo partly drawn) [Example D9, 1-Acetyl-N-(4-((4-(((5-oxo-1-(2-(2-thienyl)ethyl)-3-pyrrolidinyl)carbonyl)amino)phenyl)ethynyl)phenyl)-L-prolinamide]	2420
